Test results: patent US3941882A, “Rodenticidal imidazo-pyridines” (priority 1974, dated 1976)
Values joined by “and” are separate entries in the source; they are usually repeats but may differ in a detail not shown here. Equal entries are not always repeated.

Columns and labels:
[1] = tested on: coagulation (prothrombin time, activated partial thromboplastin, thrombin clotting time, fibrinogen); assay: Coagulation studies in dogs: clotting times and fibrinogen (Table V); type: in vivo, dogs (beagles); conditions: for Activated Partial Thromboplastin Time / Fibrinogen Levels / Prothrombin Time / Thrombin Clotting Time: 40 mg./kg. oral on each of 3 successive days, fourth day, per dog
Procedure: (§1) Each of 1-methoxy-6-chloro-2-trifluoromethyl-1H-imidazo-(4,5-b)pyridine and 1-hydroxy-6-chloro-2-trifluoromethyl-1H-imidazo(4,5-b)pyridine was evaluated in coagulation studies in dogs (beagles weighing about 10 kilograms each). Two dogs were employed with each compound, one female and one male.
In the first part of the evaluation, a blood sample was taken from each dog prior to any treatment with the respective compound. The sample was citrated and centrifuged for 10-15 minutes to segregate the plasma, which was separated and quick frozen. The dogs were then treated: each dog received 40 mg./kg. of the respective compound on each of 3 successive days; administration was by the oral route. On the fourth day, blood samples were again taken and processed as described above. Throughout the test, the dogs were provided with adequate food and water and otherwise maintained under good conditions. The samples were subsequently thawed and analyzed for prothrombin time activated partial thromboplastin, thrombin clotting time, and fibrinogen levels. The first three analyses were conducted on a "Bioquest Fibrometer", produced by Baltimore Biological Division of Becton and Dickinson at Cockeysville, Maryland 21030, Fibrinogen levels were determined by the method of H. O. Bang, 9 Scand. J. Clin. Lab. Inves. 205 (1957).

[2] = tested on: PTA (XI); assay: Coagulation factor concentration in dogs, factor XI (Table VI); type: in vivo, dogs (beagles); conditions: 40 mg./kg. oral x 3 days; per dog
Procedure: as §1
(§2) In the second part of the evaluation, a sample was taken from each of the same four dogs prior to any treatment (at the same time as the initial sample for the first part of the evaluation), and the samples were pooled and evaluated for the concentration of individual clotting factors, to serve as a control. Following the treatment described above, a sample was again taken from each dog and individually analyzed in the same manner. The control figure was considered as 100 percent and the scores for the treated dogs were reported as percent of the control figure. Analyses were by the following methods:
Xi s. i. rapaport, 57 J. Lab. Clin. Med. 771 (1961).

[3] = tested on: AHG (VIII); assay: Coagulation factor concentration in dogs, factor VIII (Table VI); type: in vivo, dogs (beagles); conditions: 40 mg./kg. oral x 3 days; per dog
Procedure: as §1, §2
Viii r. d. langdell et al., 41 J. Lab. Clin. Med. 637 (1953).

[4] = tested on: PTC (IX); assay: Coagulation factor concentration in dogs, factor IX (Table VI); type: in vivo, dogs (beagles); conditions: 40 mg./kg. oral x 3 days; per dog
Procedure: as §1, §2
Ix w. f. stapp, 10 Scand. J. Clin. Lab. Inves. 169 l (1958).

[5] = tested on: Hageman Factor (XII); assay: Coagulation factor concentration in dogs, factor XII (Table VI); type: in vivo, dogs (beagles); conditions: 40 mg./kg. oral x 3 days; per dog
Procedure: as §1, §2
Xii o. d. ratnoff in Thrombosis and Bleading Disorders, ed. by N. U. Bang et al. (G. Thieme, and Academic Press, N.Y., 1971), pages 214-221.

[6] = tested on: Prothrombin (II); assay: Coagulation factor concentration in dogs, factor II (Table VI); type: in vivo, dogs (beagles); conditions: 40 mg./kg. oral x 3 days; per dog
Procedure: as §1, §2
Ii f. koller et al., 6 Acta Haem. 1 (1951).

[7] = tested on: Stuart Factor (X); assay: Coagulation factor concentration in dogs, factor X (Table VI); type: in vivo, dogs (beagles); conditions: 40 mg./kg. oral x 3 days; per dog
Procedure: as §1
as §2, with “figure.” for “figure. Analyses were by the following methods:”

[8] = tested on: Ac Globulin (V); assay: Coagulation factor concentration in dogs, factor V (Table VI); type: in vivo, dogs (beagles); conditions: 40 mg./kg. oral x 3 days; per dog
Procedure: as §1
as §2, with “figure.” for “figure. Analyses were by the following methods:”

[9] = tested on: Proconvertin (VII); assay: Coagulation factor concentration in dogs, factor VII (Table VI); type: in vivo, dogs (beagles); conditions: 40 mg./kg. oral x 3 days; per dog
Procedure: as §1, §2
Vii f. bachman et al., 1 Thrombosis Diathes. Haemorrh. 169 (1957)

[10] = tested on: prothrombin time; assay: Prothrombin time in male rats (Tables III and IV); type: in vivo, rats (Harlan albino strain); conditions: five days, group of 5 rats
Procedure: Representative compounds were evaluated for prothrombin time in standard laboratory male rats (Harlan albino strain) of weanling age. A standard laboratory animal diet was fed to one group of 5 rats to serve as a control; other groups of 5 rats received modified diets, each diet being the standard laboratory animal diet modified by the incorporation therein of 0.08 percent of the respective compound. Feeding was continued for five days, at which time a blood sample was taken from each rat and analyzed for prothrombin time. The analytical method was that of A. J. Quick, "The Determination of Prothrombin," 190 Am. J. Med. Sci. 501 (1935): and it was performed on the "Electra 600", a machine available from the Medical Laboratory Automation, Inc. The results are reported in Table III.
Additional evaluations of the effect of representative compounds of prothrombin time were conducted. The procedures were the same as those reported in Examples 30-33 except that the concentration of the respective compound was 0.02 percent.

Structure (SMILES)	Activated Partial Thromboplastin Time [1]	Fibrinogen Levels [1]	Prothrombin Time [1]	Thrombin Clotting Time [1]	Coagulation Factor, PTA (XI) [2]	Coagulation Factor, AHG (VIII) [3]	Coagulation Factor, PTC (IX) [4]	Coagulation Factor, Hageman Factor (XII) [5]	Coagulation Factor, Prothrombin (II) [6]	Coagulation Factor, Stuart Factor (X) [7]	Coagulation Factor, Ac Globulin (V) [8]	Coagulation Factor, Proconvertin (VII) [9]	Prolongation of activated partial thromboplastin time (in words) ([1]; dogs, 40 mg./kg. oral x 3 days)	Deaths ([10]; 0.02 percent in diet)	Range of Prothrombin Time ([10]; 0.02 percent in diet)	Deaths ([10]; 0.08 percent in diet)	Range of Prothrombin Time ([10]; 0.08 percent in diet)
On1c(C(F)(F)F)nc2ncc(Cl)cc21 [1-hydroxy-6-chloro-2-trifluoromethyl-1H-imidazo(4,5-b)pyridine]	22.9 s and 16.0 s	223 mg% and 218 mg%	9.9 s and 6.9 s	12.2 s and 12.0 s	128 % of Control and 140 % of Control	94 % of Control and 100 % of Control	45 % of Control and 66 % of Control	37 % of Control and 18 % of Control	70 % of Control	11 % of Control and 25 % of Control	100 % of Control	11 % of Control and 20 % of Control	–	–	–	–	–
COn1c(C(F)(F)F)nc2ncc(Cl)cc21 [1-methoxy-6-chloro-2-trifluoromethyl-1H-imidazo(4,5-b)pyridine]	18.9 s and 26.2 s	236 mg% and 222 mg%	12.2 s and 12.9 s	10.5 s and 13.9 s	224 % of Control and 200 % of Control	124 % of Control and 122 % of Control	26 % of Control and 35 % of Control	25 % of Control and 43 % of Control	39 % of Control	4 % of Control and 6 % of Control	100 % of Control	9 % of Control and 14 % of Control	prolongs activated partial thromboplastin time	none	19.5 to 27.5 s	none	50.1 to 109.1 s
